{
  "source": "paper PMC5422493",
  "about": "“Important amino acid residues of hexachlorocyclohexane dehydrochlorinases (LinA) for enantioselective transformation of hexachlorocyclohexane isomers” (Biodegradation, 2017)",
  "key": {"LinA-type2": {"target": "T1, LinA-type2 (uncultured organism, UniProt B5ANU3)", "T1 construct": "natural variant differing from LinA-type1 at ten positions (incl. Q20, C96, G131, M133); pET-26b(+) NdeI/XhoI (C-terminal His tag), E. coli BL21(DE3), Ni-NTA purified", "T1 sequence (B5ANU3 1-156)": "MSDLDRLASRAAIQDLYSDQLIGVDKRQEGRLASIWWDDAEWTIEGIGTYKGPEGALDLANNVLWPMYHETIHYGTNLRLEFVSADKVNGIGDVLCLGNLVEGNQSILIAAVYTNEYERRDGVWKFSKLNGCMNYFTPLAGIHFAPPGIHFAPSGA", "experiment": "product formation by chiral GC-ECD", "format": "biochemical", "details": "50 mM Tris-HCl pH 8.0, 10% glycerol, 30 °C"}, "LinA-type1": {"target": "T2, LinA-type1 (Sphingobium indicum, UniProt P51697)", "T2 construct": "full length 156 residues, pET-26b(+) NdeI/XhoI (C-terminal His tag), E. coli BL21(DE3), Ni-NTA purified", "T2 sequence (P51697 1-156)": "T1 sequence (B5ANU3 1-156) with Q20K, G23A, Y68F, T71C, C96L, Y113F, N115D, L129R, G131A, M133T", "experiment": "product formation by chiral GC-ECD", "format": "biochemical", "details": "50 mM Tris-HCl pH 8.0, 10% glycerol, 30 °C"}},
  "note": "Changes are numbered by the printed parent chain.",
  "data": [
    {"smiles": "Cl[C@H]1[C@H](Cl)[C@@H](Cl)[C@@H](Cl)[C@H](Cl)[C@H]1Cl", "note": "[γ-HCH]", "values": [
      {"measurement": "product formation by chiral GC-ECD", "setting": "LinA-type2", "value": "incubations with LinA-type2 led to the formation of a mixture"},
      {"measurement": "product formation by chiral GC-ECD", "setting": "LinA-type1", "value": "incubations of LinA-type1 with γ-HCH led to the formation of only γ-PCCH-2"}
    ]}
  ]
}
